Here are results for 18 compounds from patent US8580794B2 (AbbVie Inc., priority 2009, dated 2013).

Each structure is given as a SMILES string.

As a reminder, the Ki is a measure of affinity in units of concentration, obtained from inhibition or displacement.

The target of the assay is GST-Bc1-2 (Homo sapiens, UniProt P10415). Kind of assay: Time Resolved-Fluorescence Resonance Energy Transfer (TR-FRET) Bcl-2 binding assay with F-Bak peptide probe. To be noted: GST-Bcl-2 1 nM, F-Bak probe 100 nM, Tb-anti-GST 1 nM; '<' = below limit of detection; read-out: TR-FRET Bcl-2 Binding Ki. On the technique in general: In TR-FRET formats the signal depends on donor and acceptor labels being close together.
Sequence of GST-Bc1-2 (P10415 whole entry): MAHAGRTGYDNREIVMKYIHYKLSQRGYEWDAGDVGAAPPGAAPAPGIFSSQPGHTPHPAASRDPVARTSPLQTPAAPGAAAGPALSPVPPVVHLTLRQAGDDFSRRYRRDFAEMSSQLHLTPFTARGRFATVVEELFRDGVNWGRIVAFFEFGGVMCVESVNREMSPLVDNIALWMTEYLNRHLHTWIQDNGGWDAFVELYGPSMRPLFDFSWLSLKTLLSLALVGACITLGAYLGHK

For `CC1(C)CCC(CN2CCN(c3ccc(C(=O)NS(=O)(=O)c4ccc(NCCCN(CC(F)(F)F)C5CC5)c([N+](=O)[O-])c4)c(Oc4cnc5[nH]ccc5c4)c3)CC2)=C(c2ccc(Cl)cc2)C1` [Example 308, 4-(4-{[2-(4-chlorophenyl)-4,4-dimethylcyclohex-1-en-1-yl]methyl}piperazin-1-yl)-N-{[4-({3-[cyclopropyl(2,2,2-trifluoroethyl)amino]propyl}amino)-3-nitrophenyl]sulfonyl}-2-(1H-pyrrolo[2,3-b]pyridin-5-yloxy)benzamide], the Ki is 0.141 nM.

`CC1(C)CCC(CN2CCN(c3ccc(C(=O)NS(=O)(=O)c4ccc(OCC5CCN(C6COC6)CC5)c(Cl)c4)c(Oc4cnc5[nH]ccc5c4)c3)CC2)=C(c2ccc(Cl)cc2)C1` [Example 309, N-[(3-chloro-4-{[1-(oxetan-3-yl)piperidin-4-yl]methoxy}phenyl)sulfonyl]-4-(4-{[2-(4-chlorophenyl)-4,4-dimethylcyclohex-1-en-1-yl]methyl}piperazin-1-yl)-2-(1H-pyrrolo[2,3-b]pyridin-5-yloxy)benzamide]: the Ki is 0.023 nM.

Turning to `CC1(C)CCC(CN2CCN(c3ccc(C(=O)NS(=O)(=O)c4cc(F)c(OCC5(F)CCOCC5)c(F)c4)c(Oc4cnc5[nH]ccc5c4)c3)CC2)=C(c2ccc(Cl)cc2)C1` [Example 310, 4-(4-{[2-(4-chlorophenyl)-4,4-dimethylcyclohex-1-en-1-yl]methyl}piperazin-1-yl)-N-({3,5-difluoro-4-[(4-fluorotetrahydro-2H-pyran-4-yl)methoxy]phenyl}sulfonyl)-2-(1H-pyrrolo[2,3-b]pyridin-5-yloxy)benzamide], the Ki was 0.165 nM. `CC1(C)CCC(CN2CCN(c3ccc(C(=O)NS(=O)(=O)c4ccc(NCCCN(C5CC5)C5COC5)c([N+](=O)[O-])c4)c(Oc4cnc5[nH]ccc5c4)c3)CC2)=C(c2ccc(Cl)cc2)C1` [Example 311, 4-(4-{[2-(4-chlorophenyl)-4,4-dimethylcyclohex-1-en-1-yl]methyl}piperazin-1-yl)-N-{[4-({3-[cyclopropyl(oxetan-3-yl)amino]propyl}amino)-3-nitrophenyl]sulfonyl}-2-(1H-pyrrolo[2,3-b]pyridin-5-yloxy)benzamide]: the Ki was less than 0.01 nM.

For the compound `CN1CCC[C@H]1C(=O)N1CCC(COc2ccc(S(=O)(=O)NC(=O)c3ccc(N4CCN(CC5=C(c6ccc(Cl)cc6)CC(C)(C)CC5)CC4)cc3Oc3cnc4[nH]ccc4c3)cc2Cl)CC1` [Example 312, N-[(3-chloro-4-{[1-(1-methyl-L-prolyl)piperidin-4-yl]methoxy}phenyl)sulfonyl]-4-(4-{[2-(4-chlorophenyl)-4,4-dimethylcyclohex-1-en-1-yl]methyl}piperazin-1-yl)-2-(1H-pyrrolo[2,3-b]pyridin-5-yloxy)benzamide], the inhibition constant Ki is less than 0.01 nM.

In the case of `CC1(C)CCC(CN2CCN(c3ccc(C(=O)NS(=O)(=O)c4cc(F)c(F)c(OCC5(F)CCOCC5)c4)c(Oc4cnc5[nH]ccc5c4)c3)CC2)=C(c2ccc(Cl)cc2)C1` [Example 313, 4-(4-{[2-(4-chlorophenyl)-4,4-dimethylcyclohex-1-en-1-yl]methyl}piperazin-1-yl)-N-({3,4-difluoro-5-[(4-fluorotetrahydro-2H-pyran-4-yl)methoxy]phenyl}sulfonyl)-2-(1H-pyrrolo[2,3-b]pyridin-5-yloxy)benzamide], the Ki worked out at 1.1 nM. Turning to `CC1(C)CCC(CC2CCN(c3ccc(C(=O)NS(=O)(=O)c4ccc(NCC5CCOCC5)c([N+](=O)[O-])c4)c(Oc4cnc5[nH]ccc5c4)c3)CC2)=C(c2ccc(Cl)cc2)C1` [Example 315, 4-(4-{[2-(4-chlorophenyl)-4,4-dimethylcyclohex-1-en-1-yl]methyl}piperidin-1-yl)-N-({3-nitro-4-[(tetrahydro-2H-pyran-4-ylmethyl)amino]phenyl}sulfonyl)-2-(1H-pyrrolo[2,3-b]pyridin-5-yloxy)benzamide], the inhibition constant Ki is 0.052 nM. With `CC1(C)CCC(CC2CCN(c3ccc(C(=O)NS(=O)(=O)c4ccc(OCC5CCOCC5)c(Cl)c4)c(Oc4cnc5[nH]ccc5c4)c3)CC2)=C(c2ccc(Cl)cc2)C1` [Example 316, 4-(4-{[2-(4-chlorophenyl)-4,4-dimethylcyclohex-1-en-1-yl]methyl}piperidin-1-yl)-N-{[3-chloro-4-(tetrahydro-2H-pyran-4-ylmethoxy)phenyl]sulfonyl}-2-(1H-pyrrolo[2,3-b]pyridin-5-yloxy)benzamide], the Ki is 0.601 nM.

With `COC(=O)N1CCOC(CNc2ccc(S(=O)(=O)NC(=O)c3ccc(N4CCN(CC5=C(c6ccc(Cl)cc6)CC(C)(C)CC5)CC4)cc3Oc3cnc4[nH]ccc4c3)cc2[N+](=O)[O-])C1` (stereo not drawn) [Example 317, methyl 2-{[(4-{[4-(4-{[2-(4-chlorophenyl)-4,4-dimethylcyclohex-1-en-1-yl]methyl}piperazin-1-yl)-2-(1H-pyrrolo[2,3-b]pyridin-5-yloxy)benzoyl]sulfamoyl}-2-nitrophenyl)amino]methyl}morpholine-4-carboxylate], the Ki was less than 0.01 nM.

For `CCN(C)C(=O)N1CCOC(CNc2ccc(S(=O)(=O)NC(=O)c3ccc(N4CCN(CC5=C(c6ccc(Cl)cc6)CC(C)(C)CC5)CC4)cc3Oc3cnc4[nH]ccc4c3)cc2[N+](=O)[O-])C1` (stereo not drawn) [Example 318, 2-{[(4-{[4-(4-{[2-(4-chlorophenyl)-4,4-dimethylcyclohex-1-en-1-yl]methyl}piperazin-1-yl)-2-(1H-pyrrolo[2,3-b]pyridin-5-yloxy)benzoyl]sulfamoyl}-2-nitrophenyl)amino]methyl}-N-ethyl-N-methylmorpholine-4-carboxamide], the Ki was less than 0.01 nM.

Regarding `CC1(C)CCC(CN2CCN(c3ccc(C(=O)NS(=O)(=O)c4ccc(NCC5CN(S(C)(=O)=O)CCO5)c([N+](=O)[O-])c4)c(Oc4cnc5[nH]ccc5c4)c3)CC2)=C(c2ccc(Cl)cc2)C1` (stereo not drawn) [Example 319, 4-(4-{[2-(4-chlorophenyl)-4,4-dimethylcyclohex-1-en-1-yl]methyl}piperazin-1-yl)-N-{[4-({[4-(methylsulfonyl)morpholin-2-yl]methyl}amino)-3-nitrophenyl]sulfonyl}-2-(1H-pyrrolo[2,3-b]pyridin-5-yloxy)benzamide], the inhibition constant (Ki) was less than 0.01 nM.

Consider `CC1(C)CCC(CN2CCN(c3ccc(C(=O)NS(=O)(=O)c4ccc(NCCCN(C5CCC5)C5CC5)c([N+](=O)[O-])c4)c(Oc4cnc5[nH]ccc5c4)c3)CC2)=C(c2ccc(Cl)cc2)C1` [Example 320, 4-(4-{[2-(4-chlorophenyl)-4,4-dimethylcyclohex-1-en-1-yl]methyl}piperazin-1-yl)-N-{[4-({3-[cyclobutyl(cyclopropyl)amino]propyl}amino)-3-nitrophenyl]sulfonyl}-2-(1H-pyrrolo[2,3-b]pyridin-5-yloxy)benzamide], for which the inhibitory constant (Ki) is less than 0.01 nM. On to `O=C(NS(=O)(=O)c1ccc(NCC2CCOCC2)c([N+](=O)[O-])c1)c1ccc(N2CCN(CC3=C(c4ccc(Cl)cc4)CCC(F)(F)C3)CC2)cc1Oc1cnc2[nH]ccc2c1` [Example 321, 4-(4-{[2-(4-chlorophenyl)-5,5-difluorocyclohex-1-en-1-yl]methyl}piperazin-1-yl)-N-({3-nitro-4-[(tetrahydro-2H-pyran-4-ylmethyl)amino]phenyl}sulfonyl)-2-(1H-pyrrolo[2,3-b]pyridin-5-yloxy)benzamide], for which the Ki is less than 0.01 nM. Turning to `CC1(C)CCC(CN2CCN(c3ccc(C(=O)NS(=O)(=O)c4ccc(OCC5(F)CCN(C6COC6)CC5)c(Cl)c4)c(Oc4cnc5[nH]ccc5c4)c3)CC2)=C(c2ccc(Cl)cc2)C1` [Example 322, N-[(3-chloro-4-{[4-fluoro-1-(oxetan-3-yl)piperidin-4-yl]methoxy}phenyl)sulfonyl]-4-(4-{[2-(4-chlorophenyl)-4,4-dimethylcyclohex-1-en-1-yl]methyl}piperazin-1-yl)-2-(1H-pyrrolo[2,3-b]pyridin-5-yloxy)benzamide], the Ki is less than 0.01 nM. As for `CC1(C)CCC(CN2CCN(c3ccc(C(=O)NS(=O)(=O)c4ccc(OCC5CCOC5)c(Cl)c4)c(Oc4cnc5[nH]ccc5c4)c3)CC2)=C(c2ccc(Cl)cc2)C1` (stereo not drawn) [Example 323, 4-(4-{[2-(4-chlorophenyl)-4,4-dimethylcyclohex-1-en-1-yl]methyl}piperazin-1-yl)-N-{[3-chloro-4-(tetrahydrofuran-3-ylmethoxy)phenyl]sulfonyl}-2-(1H-pyrrolo[2,3-b]pyridin-5-yloxy)benzamide], the inhibition constant (Ki) amounted to 0.104 nM.

On to `O=C(NS(=O)(=O)c1ccc(NC[C@H]2CC[C@H](O)CC2)c([N+](=O)[O-])c1)c1ccc(N2CCN(CC3=C(c4ccc(Cl)cc4)CCC(F)(F)C3)CC2)cc1Oc1cnc2[nH]ccc2c1` [Example 324, 4-(4-{[2-(4-chlorophenyl)-5,5-difluorocyclohex-1-en-1-yl]methyl}piperazin-1-yl)-N-[(4-{[(trans-4-hydroxycyclohexyl)methyl]amino}-3-nitrophenyl)sulfonyl]-2-(1H-pyrrolo[2,3-b]pyridin-5-yloxy)benzamide], for which the Ki was less than 0.01 nM. With `O=C(NS(=O)(=O)c1ccc(OCC2(F)CCOCC2)c(Cl)c1)c1ccc(N2CCN(CC3=C(c4ccc(Cl)cc4)CCC4(CCN(C5COC5)CC4)C3)CC2)cc1Oc1cnc2[nH]ccc2c1` [Example 325, N-({3-chloro-4-[(4-fluorotetrahydro-2H-pyran-4-yl)methoxy]phenyl}sulfonyl)-4-(4-{[9-(4-chlorophenyl)-3-(oxetan-3-yl)-3-azaspiro[5.5]undec-8-en-8-yl]methyl}piperazin-1-yl)-2-(1H-pyrrolo[2,3-b]pyridin-5-yloxy)benzamide], the Ki is less than 0.01 nM. The value for `CC1(C)CCC(CN2CCN(c3ccc(C(=O)NS(=O)(=O)c4ccc(NC[C@@H]5CN(C6CC6)CCO5)c([N+](=O)[O-])c4)c(Oc4cnc5[nH]ccc5c4)c3)CC2)=C(c2ccc(Cl)cc2)C1` [Example 326, 4-(4-{[2-(4-chlorophenyl)-4,4-dimethylcyclohex-1-en-1-yl]methyl}piperazin-1-yl)-N-{[4-({[(2R)-4-cyclopropylmorpholin-2-yl]methyl}amino)-3-nitrophenyl]sulfonyl}-2-(1H-pyrrolo[2,3-b]pyridin-5-yloxy)benzamide] was less than 0.01 nM.
